# Reference: patent USRE39050E1, “Methods of use for inhibiting bone loss and lowering serum cholesterol” (Eli Lilly and Company, priority 1994, dated 2006)
# Counter-ions that a name gives are not always drawn. Marks after values point to notes of the source that are not given here.
# What was measured:
# [1] = test system: healthy post-menopausal women; assay: 8-week parallel, double-blind, placebo study: serum lipids (GGGC); type: in vivo, human; settings: 8 weeks
# Procedure: (§1) An 8-week parallel, double-blind, placebo study in approximately 160 healthy post-menopausal women was completed. The doses of raloxifene used in this study were 10, 50, and 200 mg. […] (See Table I) Because of development over time seen with many bone markers, a raloxifene dose of 50 mg/day will likely be fully active when evaluated during a study of longer duration.
# Serum lipid levels were affected by raloxifene doses of 50 and 200 mg (Table II).
# [2] = test system: healthy post-menopausal women; assay: 8-week parallel, double-blind, placebo study: markers of bone metabolism (GGGC); type: in vivo, human; settings: 8 weeks
# Procedure: as §1
compound,measurement,setting,value
"O=C(c1ccc(OCCN2CCCCC2)cc1)c1c(-c2ccc(O)cc2)sc2cc(O)ccc12 [Raloxifene, 6-hydroxy-2-(4-hydroxyphenyl)-3[4-(2-piperidinoethoxy)benzoyl]benzo[b]thiophene, hydrochloride]",LDL cholesterol (in words),[1]; 50 mg,Decreases
same,LDL cholesterol (in words),[1]; 200 mg,comparable decrease
same,HDL:LDL ratios (in words),[1]; both the 50 and 200 mg doses,Statistically significant decreases
same,total serum cholesterol levels (in words),[1]; both the 50 and 200 mg doses,Statistically significant decreases
same,"HDL-C, mean group change from baseline to endpoint","[1]; raloxifene 10 mg, n = 42",0.01 mmol/L
same,"HDL-C:LDL-C ratio, mean group change from baseline to endpoint","[1]; raloxifene 10 mg, n = 42",0.00
same,"LDL-C, mean group change from baseline to endpoint","[1]; raloxifene 10 mg, n = 42",0.05 mmol/L
same,"Toal cholesterol, mean group change from baseline to endpoint","[1]; raloxifene 10 mg, n = 42",0.01 mmol/L
same,"HDL-C, mean group change from baseline to endpoint","[1]; raloxifene 50 mg, n = 42",0.04 mmol/L
same,"HDL-C:LDL-C ratio, mean group change from baseline to endpoint","[1]; raloxifene 50 mg, n = 42",0.03*
same,"LDL-C, mean group change from baseline to endpoint","[1]; raloxifene 50 mg, n = 42",−0.23* mmol/L
same,"Toal cholesterol, mean group change from baseline to endpoint","[1]; raloxifene 50 mg, n = 42",−0.23* mmol/L
same,"HDL-C, mean group change from baseline to endpoint","[1]; raloxifene 200 mg, n = 41",0.02 mmol/L
same,"HDL-C:LDL-C ratio, mean group change from baseline to endpoint","[1]; raloxifene 200 mg, n = 41",0.03*
same,"LDL-C, mean group change from baseline to endpoint","[1]; raloxifene 200 mg, n = 41",-0.17 mmol/L
same,"Toal cholesterol, mean group change from baseline to endpoint","[1]; raloxifene 200 mg, n = 41",-0.15 mmol/L
same,HDL levels (in words),[1]; raloxifene-treated subjects,no changes
same,activity with either bone marker (in words),[2]; 10 mg dose,no significant activity
same,"Serum alkaline phosphatase, mean group change from baseline to endpoint","[2]; raloxifene 10 mg, n = 42",0.21 U/L
same,"Serum osteocalcin, mean group change from baseline to endpoint","[2]; raloxifene 10 mg, n = 42",-0.27 ng/mL
same,"Serum alkaline phosphatase, mean group change from baseline to endpoint","[2]; raloxifene 50 mg, n = 42",−4.78 U/L
same,"Serum osteocalcin, mean group change from baseline to endpoint","[2]; raloxifene 50 mg, n = 42",-0.81 ng/mL
same,"Serum alkaline phosphatase, mean group change from baseline to endpoint","[2]; raloxifene 200 mg, n = 41",−5.93* U/L
same,"Serum osteocalcin, mean group change from baseline to endpoint","[2]; raloxifene 200 mg, n = 41",−1.21* ng/mL
